A short description of series [1]: Stability in plasma (t1/2).
The subject of series [2] is bradykinin-induced plasma extravasation. The series is described as follows: Bradykinin-induced rat paw oedema and plasma extravasation, intraplantar injection. Type of series: in vivo. The procedure:
Experiments were conducted on non-fasted male Sprague-Dawley rats (250-300 g) kept in a room controlled for temperature (22±2° C.) and illumination (12 h on and 12 h off). Under ketamine/xylazine (80/12 mg/kg, i.p.) anesthesia animals received an injection of Evans Blue (30 mg/mL/kg, i.v.) via tail vein and baseline paw volume for both hindpaws was measured by use of a plethysmometer (Ugo Basile). Animals then received 0.1 mL i.pl. injections in one hindpaw of normal saline (0.9% NaCl) containing BK either alone or mixed with HOE140 or LYS1044 (10 nmol/paw each). The contralateral paw received 0.1 mL saline and was used as a control. Oedema was measured at several 30, 60 and 90 min post i.pl. injections and expressed in mL as the difference (mL) between the test and control paws. Three hours post BK injections, animals were sacrificed and patches (10×5 mm) of the dorsal skin from both hindpaws were collected. The skin patches were then incubated separately in Eppendorf tubes containing 1.8 mL formamide at 60° C. water bath for 24 h to extract the dye. The tissue extraction was then centrifuged at 15000 rpm for 15 min and the supernatant was pipetted to a 96 well plate as triplicates and the absorbance was determined at 620 nm. The difference of the mean absorbance between the two hindpaws of each rat was used to compare the degree of plasma extravasation in different treatment groups.

The subject of the next series is naive rats. The experiment in a line: Motor function and paralysis after intrathecal injection (hindlimb tests, tail-flick) in naive rats. It is filed as in vivo, rat. The procedure: Intrathecal (i.th.) catheterization. While under ketamine/xylazine (80/12 mg/kg, i.p.) anesthesia, some groups of rats were implanted with i.th. catheters (polyethylene 10, 7.8 cm) through atlanto-occipital membrane extended to the level of the lumbar spinal cord for drug administration. Animals were allowed to recover for 7 days. Drugs were injected in a volume of 5 μl, followed by a 1 μl air bubble and a 9 μl saline flush.
Tail-flick test. The hot-water tail-flick test was performed by placing the distal third of the tail in a water bath maintained at 52° C. The latency until tail withdrawal from the bath was determined and compared among the treatments. A 10 sec cutoff was used to avoid tissue damage. Data were converted to percentage of antinociception by the following formula: (response latency−baseline latency)/(cutoff−baseline latency)*100.

The subject of another series is SNL rats. The experiment in a line: Reversal of thermal hyperalgesia and tactile hypersensitivity in SNL rats (neuropathic pain model). Type of series: in vivo, rat.

For the compound `CC[C@H](C)[C@H](NC(=O)[C@H](CCCNC(=N)N)NC(=O)[C@H](CC(C)C)NC(=O)[C@@H](N)Cc1ccccc1)C(=O)N[C@@H](CCCNC(=N)N)C(=O)N1CCC[C@H]1C(=O)N[C@@H](CCCCN)C(=O)O` [LYS1044, Phe-Leu-Arg-Ile-Arg-Pro-Lys], in series [1], the half-life is less than 3 h. In addition, in series [2], the “changes in paw volume” value is on record as “does not show changes in paw volume” and the “prevention of bradykinin-induced plasma extravasation” value is “does not prevent bradykinin-induced plasma extravasation”. Besides, in the series on naive rats (intrathecal injection, naive rats), the “motor function after intrathecal (spinal) injection” value is “does not produce motor impairment”. Besides, the “prevention of dynorphin A-(2-13)-induced paralysis” value with naive rats (spinal administration) is recorded as “prevents dynorphin A-(2-13)-induced paralysis”. The “toxic effect on rotarod experiment” value in “Rotarod experiment” is reported as “no toxic effect”. Also, in the series with SNL rats (tactile hypersensitivity), the anti-allodynic effect result is on record as “anti-allodynic effects”. Moreover, in the series on SNL rats (thermal hyperalgesia), the anti-hyperalgesic effect entry is recorded as “dose dependent anti-hyperalgesic”.
